In patent publication US20100137266A1, “TREATMENT OF INSULIN RESISTANCE AND DISORDERS ASSOCIATED THEREWITH” (UNIVERSITETET I OSLO, priority 2006, published 2010):

How the values were obtained:
GLUT1, GLUT3, GLUT4 = test: mRNA levels of glucose transporters in myotubes by Real-Time RT-PCR; type: cell-based, human; details: for GLUT4 mRNA level, increase: 1 μmol/l T0901317 or 10 μmol/l 22-R-HC for 4 days
Description: FIG. 7. Glucose transport is increased in human myotubes after chronic 22-S-HC treatment. Human myoblasts were allowed to differentiate for 2 days, and then exposed to 1 μmol/1 T0901317, 10 μmol/[…]) or 1, 2, 5 and 10 μmol/1 22-S-HC(S-HC) for 4 days. […] (A) Present means for glucose uptake±SEM (n=4). Basal level for control are 1.20±0.24 nmol/mg cell protein. (B) A representative dose-response curve for glucose uptake after 1, 2, 5 and 10 μmol/l 22-S-HC treatment (n=3). (C) Total RNA were reversely transcribed and analyzed by Real-Time RT-PCR. Results are normalized to levels of 36B4 and present means±SEM (n=4-6). Relative expressions of GLUT1, GLUT3, GLUT4, and hexokinase (HK)II, ^ap<0.05 vs control, ^dp<0.05 vs T0901317. RNA isolation and analysis of gene expression by RT-PCR. Myotubes were washed, trypsinized and pelleted before total RNA was isolated by RNeasy Mini kit (Qiagen Sciences, Oslo, Norway) or Agilent Total RNA Mini kit (Matrix, Oslo, Norway) according to the suppliers total RNA isolation protocol. RNA samples were incubated with RNase-free DNase (Qiagen Sciences) for minimum 15 min in an additional step during the RNA isolation procedure. Total RNA (1 μg/μl) was reversely transcribed with […] primers using a Perkin-Elmer Thermal Cycler 9600 (25° C. for 10 min, 37° C. for 1 h, 99° C. for 5 min) and a TaqMan reverse-transcription reagents kit (Applied Biosystems). Real time PCR was performed using an ABI PRISM® 7000 Detection System. DNA expression was determined by SYBR® Green (Applied Biosystems), and primers [36B4 (Acc#M17885), ACSL1 (Acc#NM-001995), ABCA1 (Acc#AF165281), CD36 (Acc#L06850), FAS (Acc#U26644), GAPDH (Acc#J104038/M33197, GLUT4 (Acc#M20747), LXRα (Acc#U22662), LXR (Acc#U07132), Myogenin (Acc#X17651), MyoD (Acc#BC064493), PPARα (Acc#L02932), PPARδ (Acc#BC002715), PPARγ (Acc#L40904), SCD-1 (Acc#AB032261), SREBP1c (Acc#U00968)], GLUT1, (Acc#03195), GLUT3 ([…]) were designed using Primer Express® (Applied Biosystems). Each target gene was quantified in triplicates and carried out in a 25 μl reaction volume according to the suppliers protocol. […]

human myotubes = test: Lipogenesis and lipid distribution: acetate incorporation into FFA, DAG and TAG in myotubes; type: cell-based; details: compared to control myotubes; for FFA synthesis from labeled acetate, increase / level of TAG from labeled acetate: 1 μM T0901317 or 10 μM 22-HC for 4 days; for level of DAG from labeled acetate: 1 μM T0901317 or 10 μM 22-R-HC for 4 days
Procedure: Human myoblasts were differentiated and treated with LXR ligands as described in FIG. 3. The cells were then incubated with [1-^14C]acetate (2 μCi/ml, 0.1 mM) for 4 h before levels of free fatty acids (FFA), diacylglycerol (DAG) and triacylgycerol (TAG) were determined. Results present means±SEM (n=5; independent muscle cell donors). **p<0.05 vs all other treatments, ^#p<0.05 vs T0901317. Human skeletal muscle cell cultures. […] The biopsies were obtained with informed consent and by approval of the National Committee for Research Ethics, Oslo, Norway. Muscle cell cultures free of fibroblasts were established by the method of Henry et al. (Diabetes, 44, 936-946, 1995), with minor modifications. Briefly, muscle tissue was dissected in Ham's F-10 media at 4° C., dissociated by three successive treatments with 0.05% trypsin/EDTA, and satellite cells were re-suspended in SkGM with 2% FCS and no added insulin. The cells were grown on culture wells coated with ECM gel (Apmis, 109, 726-734, 2001). At about 80% confluence, fusion of myoblasts into multinucleated myotubes was achieved by growth in DMEM with 2% FCS. All cells used were at passage 4 to 6. After 2 days in DMEM the cells were exposed to vehicle (0.1% DMSO), 1 μM T0901317, 10 μ[…]-hydroxycholesterol (22-R-HC) or 10 μ[…]-hydroxycholesterol (22-S-HC) for 4 days. Lipogenesis and lipid distribution. Myotubes were exposed to DMEM supplemented with [1-^14C]acetic acid (2 μCi/ml, 0.1 mM) for 4 h to study lipogenesis and acetate incorporation into TAG and diacylglycerol (DAG). Myotubes were harvested and analyzed as described above (Palmitate uptake and lipid distribution).

[1] = test system: rat FAS luciferase reporter; test: Transfection and luciferase assay with rat FAS promoter reporter in COS-1 cells co-transfected with RXRα and LXRα; type: cell-based; details: COS-1 cells with RXRα and LXRα expression vectors; 1 μM T0901317 or 10 μM 22-HC for 48 h; vs unstimulated control cells
Procedure: FIG. 6. […] COS-1 cells were transient transfected with rat FAS luciferase reporter and co-transfected with β-galactosidase (internal control), RXRα and LXRα expression vectors. Medium was supplied with vehicle (0.1% DMSO), 1 μM T0901317, 10 μM 22-R-hydroxycholesterol (22-R-HC) or 10 μM 22-S— hydroxycholesterol (22-S-HC) for 48 h. The results represent one of two experiments performed with triplicate cell culture dishes and are presented as means±SD.
Transfection and Luciferase Assay. Monkey kidney COS-1 cells (ATCC no. CRL 1650) were grown in DMEM supplemented with 10% FBS. For reporter gene assays, COS-1 cells were transiently transfected with luciferase reporter containing sequences from −1594 to +67 bp of the rat FAS promoter (5 μg), with a known LXR responsive element (LXRE) located at −669 to −655 (kindly provided by Peter Tontonoz, Howard Hughes Medical Institute, California, USA) and co-transfected with pCMX-RXRα, pCMX-LXRα, (1 μg each), and pSV-β-galactosidase (3 μg) expression vectors with calcium phosphate precipitation. Total DNA concentration was adjusted to 12 μg with corresponding empty expression vectors and pGL3-basic vector. After 3 h of transfection, medium containing appropriate reagents was added for 48 h. Cells were harvested in 100 μl lysis buffer, and luciferase activities were measured in a TD-20/20 Luminometer (Turner Designs, Sunnyvale, Calif.) using the dual luciferase assay kit (Promega). Relative luciferase activity was normalized against β-galactosidase activity.

SMILES | GLUT4 mRNA level, increase (GLUT1, GLUT3, GLUT4) | FFA synthesis from labeled acetate, increase (human myotubes) | level of TAG from labeled acetate (human myotubes) | level of DAG from labeled acetate (human myotubes) | rat FAS promoter luciferase reporter activity [1] | reduction for DAG from labeled acetate (human myotubes; 10 μM for 4 days) | mRNA level of glucose transporter 1 (GLUT1) (GLUT1, GLUT3, GLUT4; treatment for 4 days)
CC(C)CC[C@@H](O)[C@@H](C)[C@H]1CC[C@H]2[C@@H]3CC=C4C[C@@H](O)CC[C@]4(C)[C@H]3CC[C@]12C [Example 22-R-HC, 22-R-hydroxycholesterol] | 4 fold | 3 fold | slight increase | did not change | unable to regulate the FAS gene promoter | – | –
CC(C)CC[C@H](O)[C@@H](C)[C@H]1CC[C@H]2[C@@H]3CC=C4C[C@@H](O)CC[C@]4(C)[C@H]3CC[C@]12C [Example 22-S-HC, 22-S-hydroxycholesterol] | – | only tended to increase FFA synthesis slightly | tendency towards reduced TAG | – | seemed to reduce reporter activity | ~50% | –
O=S(=O)(c1ccccc1)N(CC(F)(F)F)c1ccc(C(O)(C(F)(F)F)C(F)(F)F)cc1 [Example T0901317] | 4 fold | 2 fold | increased TAG | increased levels of DAG | 6.5 fold | – | tended to increase
